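Each compound was tested at five concentrations against cells in 96-well plates for 48 hours. GI50 is the concentration that inhibits growth by half.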 The source made the active and inactive calls. Rule as the data show it: active = GI50 up to about 1.1 µM and inactive = higher.
Assays:
Test in all cases: NCI-60 cell line screen, 48 h
BT-549 = test system: BT-549
A549 = test system: A549
KM12 = test system: KM12
CCRF-CEM = test system: CCRF-CEM
OVCAR-4 = test system: OVCAR-4
IGROV-1 = test system: IGROV-1
CAKI-1 = test system: CAKI-1
HOP-92 = test system: HOP-92
NCI-H226 = test system: NCI-H226
UACC-62 = test system: UACC-62
UO-31 = test system: UO-31
SR = test system: SR
NCI-H23 = test system: NCI-H23
SF-268 = test system: SF-268
UACC-257 = test system: UACC-257
786-0 = test system: 786-0
Hs-578T = test system: Hs-578T
NCI/ADR-RES = test system: NCI/ADR-RES
RPMI-8226 = test system: RPMI-8226
SNB-75 = test system: SNB-75

Measured: GI50

Cn1c2ccccc2c2cc(-c3ccccc3)c3c(c21)C(=O)C=CC3=O
inactive: BT-549 12.4 µM | A549 60.1 µM | KM12 20 µM | CCRF-CEM 1.59 µM | OVCAR-4 18.8 µM | IGROV-1 22.8 µM | CAKI-1 18.3 µM | HOP-92 14.5 µM | NCI-H226 15.2 µM | UACC-62 19.3 µM | UO-31 19.8 µM | SR 3.31 µM | NCI-H23 17.2 µM | SF-268 28.4 µM | UACC-257 21.6 µM | 786-0 8.15 µM | Hs-578T 28.9 µM | NCI/ADR-RES 41.3 µM | RPMI-8226 2.45 µM | SNB-75 27.6 µM

O=C(O)C(O)C(O)C(O)C(=O)CO (stereo not given)
inactive: BT-549 > 100 µM | A549 > 100 µM | KM12 > 100 µM | CCRF-CEM > 100 µM | OVCAR-4 > 100 µM | IGROV-1 > 100 µM | CAKI-1 > 100 µM | HOP-92 > 100 µM | NCI-H226 > 100 µM | UACC-62 > 100 µM | UO-31 > 100 µM | SR > 100 µM | NCI-H23 > 100 µM | SF-268 > 100 µM | UACC-257 > 100 µM | 786-0 > 100 µM | Hs-578T > 100 µM | NCI/ADR-RES > 100 µM | RPMI-8226 > 100 µM | SNB-75 > 100 µM

— ChEMBL document CHEMBL1201862, “PubChem BioAssay data set” (2004)
